Consider 2 molecules from patent publication US20220387602A1, “BIFUNCTIONAL DEGRADERS AND THEIR METHODS OF USE” (NOVARTIS AG, priority 2019, published 2022).

One assay has as its target T1, CSK (Homo sapiens, UniProt P41240).
T1 construct: EGFP (after a Leu that replaces the STOP codon); expressed in transfected cells; host or cells: HEK293A (Invitrogen R70507), lentiviral transduction
Kind of assay: CSK-GFP protein abundance flow cytometry assay in HEK293A. In kind it is cell-based. The following applies: for CSK Amax: % protein remaining at the concentration of maximum degradation; for DC50: HEK293A CSK-GFP sensor cells, 24 h. On the procedure: (§1) Degradation of BTK, CSK, ABL2, EPHA4 and YES1 was measured in HEK293A cells (Invitrogen R70507) expressing either BTK-GFP and RFP, CSK-GFP and mCherry, GFP-ABL2 and mCherry, EPHA4-GFP and mCherry, or YES1-GFP and mCherry from a stably integrated bicistronic BTK-GFP-iresRFP, CSK-GFP-CHYSEL-mCherry, GFP-ABL2-CHYSEL-mCherry, EPHA4-GFP-CHYSEL-mCherry, or YES1-GFP-CHYSEL-mCherry construct, respectively. Reduction of the GFP signal measured by flow cytometry served as readout for BTK, CSK, ABL2, EPHA4 and YES1 degradation after degrader treatment.
(§2) 293A BTK-GFP-Ires-RFP, CSK-GFP-CHYSEL-mCherry, GFP-ABL2-CHYSEL-mCherry, EPHA4-GFP-CHYSEL-mCherry, or YES1-GFP-CHYSEL-mCherry sensor cells were generated by lentiviral vector transduction using the pLenti6-BTK-GFP-Ires-RFP, pLenti6-mCherryCHYSEL-EGFP-ABL2, pLenti6-CSK-GFP-CHYSEL-mCherry, pLenti6-EPHA4-GFP-CHYSEL-mCherry or pLenti6-YES1-GFP-CHYSEL-mCherry sensor construct described before. Lentiviral particles were produced in HEK293FT cells (Invitrogen R70007) by co-transfection of 500 ng pLenti6-BTK-GFP-Ires-RFP or pLenti6-IKZF3-GFP-Ires-RFP, 500 ng delta8.71 and 200 ng pVSVG diluted in 100 μL OptiMEM serum free medium (Invitrogen #11058-021) that was mixed after 5 min preincubation with 3 μL of Lipofectamine2000 (Invitrogen #11668-019) in 97 μL OptiMEM serum free medium. The mix was incubated for another 20 min at RT and then added on 1 mL of a freshly prepared suspension of HEK293FT cells in a well of a 6-well plate (concentration 1.2×10^6 cells/mL). 1 day after transfection, the medium was replaced with 1.5 mL of complete growth medium (DMEM high Glucose+10% FCS+1% L-Glutamine+1% NEAA+1% NaPyr.). 48 h post transfection supernatant containing viral transducing particles was collected and frozen at −80° C.
(§3) 2 days before transduction with viral particles 1×10^5 HEK293A cells (Invitrogen R70507) were seeded in 2 mL growth medium in a well of a 6-well plate. Infection was performed with 90 μL of collected supernatant containing viral transducing particles in 1 mL medium including 8 µg/mL polybrene. 24 h post infection, stably transfected cells were selected with blasticidin at a concentration of 8 μg/mL referred to as stable HEK293A sensor cells.
(§4) Stable HEK293A sensor cells were maintained in complete growth medium (DMEM high Glucose+10% FCS+1% L-Glutamine+1% NEAA+1% NaPyr.) with passaging performed twice per week. […] GFP and RFP are read in the channels called FITC and PE, respectively.
(§5) Concentration response curves plotting relative reduction of the GFP signal (measured by flow cytometry) versus 10 compound concentrations (starting concentration 10 μM, 3 fold dilution steps) of the compounds allowed generation of DC50 values.

A further assay has as its target T2, ABL2 (Homo sapiens, UniProt P42684).
T2 construct: expressed in transfected cells; host or cells: HEK293A (Invitrogen R70507), lentiviral transduction
Put plainly: GFP-ABL2 protein abundance flow cytometry assay in HEK293A. In kind it is cell-based. The following applies: for ABL2 Amax: % protein remaining at the concentration of maximum degradation; for DC50: HEK293A GFP-ABL2 sensor cells, 24 h. The procedure:
as §1, §2, §3, §4, §5
(Flow cytometry measures light scatter and fluorescence of single cells or particles in a stream.)

T1 sequence (P41240 whole entry): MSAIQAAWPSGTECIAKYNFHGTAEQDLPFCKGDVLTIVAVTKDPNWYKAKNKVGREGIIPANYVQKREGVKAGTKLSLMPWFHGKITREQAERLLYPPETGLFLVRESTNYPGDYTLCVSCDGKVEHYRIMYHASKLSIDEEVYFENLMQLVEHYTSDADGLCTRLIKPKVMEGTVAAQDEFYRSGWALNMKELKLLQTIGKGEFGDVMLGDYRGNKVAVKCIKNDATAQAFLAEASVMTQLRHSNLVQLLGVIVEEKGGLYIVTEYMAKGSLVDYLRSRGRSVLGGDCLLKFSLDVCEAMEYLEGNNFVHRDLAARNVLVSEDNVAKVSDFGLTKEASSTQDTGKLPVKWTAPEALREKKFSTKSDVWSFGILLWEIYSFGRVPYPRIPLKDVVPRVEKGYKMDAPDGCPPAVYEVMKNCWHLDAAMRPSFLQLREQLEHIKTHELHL
T2 sequence (P42684 whole entry, looked up): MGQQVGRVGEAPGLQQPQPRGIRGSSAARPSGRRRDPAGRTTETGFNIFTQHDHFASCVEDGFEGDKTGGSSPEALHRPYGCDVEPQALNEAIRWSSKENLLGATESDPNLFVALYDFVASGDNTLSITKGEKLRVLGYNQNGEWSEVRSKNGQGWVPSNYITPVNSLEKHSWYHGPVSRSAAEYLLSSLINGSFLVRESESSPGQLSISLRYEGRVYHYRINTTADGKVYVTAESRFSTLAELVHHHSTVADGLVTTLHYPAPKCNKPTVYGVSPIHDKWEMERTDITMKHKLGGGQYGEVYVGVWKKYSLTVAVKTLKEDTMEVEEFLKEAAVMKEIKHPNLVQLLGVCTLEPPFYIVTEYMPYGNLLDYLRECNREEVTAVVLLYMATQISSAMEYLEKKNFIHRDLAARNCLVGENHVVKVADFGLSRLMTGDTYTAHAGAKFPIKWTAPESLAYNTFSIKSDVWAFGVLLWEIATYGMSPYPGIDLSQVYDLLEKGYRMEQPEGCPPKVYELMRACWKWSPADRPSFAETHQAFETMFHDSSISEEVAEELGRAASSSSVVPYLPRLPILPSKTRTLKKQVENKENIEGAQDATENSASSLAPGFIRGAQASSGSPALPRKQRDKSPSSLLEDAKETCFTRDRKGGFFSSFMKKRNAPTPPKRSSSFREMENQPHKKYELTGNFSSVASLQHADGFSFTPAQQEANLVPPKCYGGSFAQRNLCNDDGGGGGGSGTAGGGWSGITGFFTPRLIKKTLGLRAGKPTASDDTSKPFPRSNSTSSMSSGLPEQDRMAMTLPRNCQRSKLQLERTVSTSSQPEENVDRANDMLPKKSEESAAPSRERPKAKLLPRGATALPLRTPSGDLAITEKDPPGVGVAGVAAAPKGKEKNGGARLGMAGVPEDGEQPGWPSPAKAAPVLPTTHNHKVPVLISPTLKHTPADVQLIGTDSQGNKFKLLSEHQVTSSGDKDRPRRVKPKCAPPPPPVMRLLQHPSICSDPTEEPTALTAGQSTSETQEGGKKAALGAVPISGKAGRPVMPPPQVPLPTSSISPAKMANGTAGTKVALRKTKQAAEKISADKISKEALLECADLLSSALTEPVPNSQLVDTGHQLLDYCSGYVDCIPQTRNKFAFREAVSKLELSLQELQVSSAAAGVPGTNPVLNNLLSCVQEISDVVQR

As to `COc1ccc(C(=O)N2CCC3(CCN(C(=O)CCCCCCCN4CCN(c5cc(Nc6ncc(C(=O)Nc7c(C)cccc7Cl)s6)nc(C)n5)CC4)CC3)CC2)cc1N1CCC(=O)NC1=O` [compound 06, N-(2-chloro-6-methylphenyl)-2-((6-(4-(8-(9-(3-(2,4-dioxotetrahydropyrimidin-1(2H)-yl)-4-methoxybenzoyl)-3,9-diazaspiro[5.5]undecan-3-yl)-8-oxooctyl)piperazin-1-yl)-2-methylpyrimidin-4-yl)amino)thiazole-5-carboxamide], on CSK, the “CSK Amax” value is 4% and the DC50 was 4 nM. Besides, on ABL2, the “ABL2 Amax” value came out at 22% and the DC50 was determined as 2 nM.

On to `COc1ccc(C(=O)N2CCC3(CCN(C(=O)CN4CCN(c5cc(Nc6ncc(C(=O)Nc7c(C)cccc7Cl)s6)nc(C)n5)CC4)CC3)CC2)cc1N1CCC(=O)NC1=O` [compound 07, N-(2-chloro-6-methylphenyl)-2-((6-(4-(2-(9-(3-(2,4-dioxotetrahydropyrimidin-1(2H)-yl)-4-methoxybenzoyl)-3,9-diazaspiro[5.5]undecan-3-yl)-2-oxoethyl)piperazin-1-yl)-2-methylpyrimidin-4-yl)amino)thiazole-5-carboxamide], for which, at CSK, the “CSK Amax” value is recorded as 1% and the DC50 stood at 23 nM. For the same molecule, at ABL2, the “ABL2 Amax” value is on record as 27% and the DC50 was 63 nM.
